Experimental data: patent US6916915B1, “Stressor regulated genes” (Duke University, priority 1998, dated 2005)

Test system: C. elegans
Experiment: Reverse-Northern dot-blot analysis of steady-state mRNA levels after cadmium exposure
Type: in vivo, Caenorhabditis elegans
Settings: for Fold-change in mRNA levels following cadmium exposure, DDRT25: clone DDRT25; for Fold-change in mRNA levels following cadmium exposure, DDRT26: clone DDRT26; for Fold-change in mRNA levels following cadmium exposure, DDRT28: clone DDRT28; for Fold-change in mRNA levels following cadmium exposure, DDRT29: clone DDRT29; for Fold-change in mRNA levels following cadmium exposure, DDRT30: clone DDRT30; for Fold-change in mRNA levels following cadmium exposure, DDRT32: clone DDRT32; for Fold-change in mRNA levels following cadmium exposure, DDRT33D: clone DDRT33D; for Fold-change in mRNA levels following cadmium exposure, DDRT33U: clone DDRT33U; for Fold-change in mRNA levels following cadmium exposure, DDRT34: clone DDRT34; for Fold-change in mRNA levels following cadmium exposure, DDRT35: clone DDRT35; for Fold-change in mRNA levels following cadmium exposure, DDRT40: clone DDRT40; for Fold-change in mRNA levels following cadmium exposure, DDRT41: clone DDRT41; for Fold-change in mRNA levels following cadmium exposure, DDRT48: clone DDRT48; for Fold-change in mRNA levels following cadmium exposure, DDRT50: clone DDRT50; for Fold-change in mRNA levels following cadmium exposure, VL9: clone VL9; for Fold-change in mRNA levels following cadmium exposure, VL11: clone VL11; for Fold-change in mRNA levels following cadmium exposure, VL19: clone VL19; for Fold-change in mRNA levels following cadmium exposure, VL20: clone VL20; for Fold-change in mRNA levels following cadmium exposure, VL21: clone VL21
Description: Growth and isolation of C. elegans—The N2 strain of C. elegans was grown in liquid S medium (0.1M NaCl, 50 mM potassium phosphate, pH 6.0, 5 μg/ml cholesterol, 10 mM potassium citrate, 3 mM CaCl2, 3 mM MgCl2, 50 μM EDTA, 25 μM FeSO4, 10 μM MnCl2, 10 μM ZnSO4 and 1 μM CuSO4) using E. coli OP50 as a food source (Brenner, S. (1974) Genetics 77, 71-94). In experiments where nematodes were exposed to cadmium, the medium was supplemented with 100 μM CdCl2 (Freedman, J. H. et al. (1993) J. Biol. Chem. 268, 2554-2564). C. elegans were grown in the presence of metal for 8 h or 24 h at ˜20° C. Nematodes were then collected following centrifugation at 800×g for 5 min. Pellets were suspended in 5 mM NaCl containing 35% sucrose (final concentration) and viable nematodes were collected from the top of the solution following centrifugation at 1000×g for 5 min at 4° C. Nematodes were then washed three times by suspension in M9 buffer (22 mM KH2PO4, 42 mM Na2HPO4, 85 mM NaCl, 1 mM MgSO4) followed by sedimentation at 800×g. Washed nematode pellets were finally suspended in a small volume of M9 buffer, rapidly frozen in liquid nitrogen and stored at −80° C.
RNA isolation—Total RNA was isolated from mix-stage populations of C. elegans exposed to 100 μM CdCl2 for 8 h and 24 h and control, non-exposed nematodes. Frozen worms were first ground into a fine powder using a liquid nitrogen-cooled mortar and pestle. Powdered C. elegans (200 mg) were then homogenized in 2 ml of TRIzol (GIBCO/BRL). RNA was then collected from the aqueous phase following the addition of chloroform, precipitated by adding isopropyl alcohol and then air-dried. The dried RNA pellet was then dissolved in diethyl pyrocarbonate (DEPC)-treated water. For some experiments, poly(A^+) RNA was subsequently isolated using the Poly(A) Tract System following manufacturer's instructions (Promega).
Reverse-Northern dot-blot analysis—Changes in the steady-state levels of differentially expressed mRNAs in C. elegans following cadmium-exposure were also determined by reverse-Northern dot-blot analysis by the modified procedure of Zhang et al. (Cummins, C. et al. (1988) Mol. Cell. Biol 8, 5334-5349). Briefly, differentially expressed cDNAs that were previously cloned into pGEM-T were amplified using primers that anneal to the T7 and SP6 RNA polymerase binding sites, which flank the cDNA insert. cDNAs were amplified and subsequently purified using a PCR-spin column (QIAGEN). Approximately 100 ng of each amplified cDNA were denatured by mixing with 0.1N NaOH (final concentration) and incubating at 100° C. for 5 min. The solution was neutralized following the addition of 3×SSC (final concentration) and then the volume adjusted to 700 μl with dH2O. 200-μl of each sample was applied to one of three Nytran membranes in a Bio-Dot microfiltration apparatus (BioRad). Membranes were then baked for 30 min at 80° C. under vacuum. As positive and loading controls 100 ng of mtl-1 cDNA and myosin light chain DNA were also applied to each membrane, respectively.
Three pools of single-stranded ^32P-labeled cDNA probes were prepared from poly(A^+) RNA isolated from control, 8 h and 24 h cadmium-treated nematodes. cDNAs were generated from a mixture of mRNAs in a 25 μl reverse transcriptase reactions which contained 2 μg poly(A^+) RNA, 1 μg oligo (dT)18 primer, reverse transcriptase buffer, 800 μM DATP, dGTP and dTTP, 4.5 μM dCTP, 100 μCi [α-^32P]dCTP (3000 Ci/mmol), 20 units RNase inhibitor and 200 units Moloney murine leukemia virus reverse transcriptase. The reaction mixture was incubated at 37° C. for 1 h, then at 95° C. for 5 min to terminate the reaction. Unincorporated nucleotides were separated from the labeled cDNAs by using a G-25 spin column (Boehringer Mannheim). Equal amounts (5×10^6 cpm/ml) of each radioactive cDNA mixture were heat-denatured and then hybridized separately to one of the three membranes at 42° C. for 16 h in hybridization buffer. […]

[1] = 8 hours, 100 μM CdCl2, relative to non-exposed, normalized to myosin light chain mRNA
[2] = 24 hours, 100 μM CdCl2, relative to non-exposed, normalized to myosin light chain mRNA

## [Cl][Cd][Cl] [cadmium, CdCl2]
Clone DDRT23, 24 hours, 100 μM CdCl2, relative to non-exposed, normalized to myosin light chain mRNA
  Fold-change in mRNA levels following cadmium exposure, DDRT23: 3.0 fold
[1]
  Fold-change in mRNA levels following cadmium exposure, DDRT25: 3.9 fold
  Fold-change in mRNA levels following cadmium exposure, DDRT26: 4.4 fold
  Fold-change in mRNA levels following cadmium exposure, DDRT28: 1.7 fold
  Fold-change in mRNA levels following cadmium exposure, DDRT29: 3.9 fold
  Fold-change in mRNA levels following cadmium exposure, DDRT30: 2.7 fold
  Fold-change in mRNA levels following cadmium exposure, DDRT32: 2.6 fold
  Fold-change in mRNA levels following cadmium exposure, DDRT33D: 3.1 fold
  Fold-change in mRNA levels following cadmium exposure, DDRT33U: 3.0 fold
  Fold-change in mRNA levels following cadmium exposure, DDRT34: 2.4 fold
  Fold-change in mRNA levels following cadmium exposure, DDRT35: 1.6 fold
  Fold-change in mRNA levels following cadmium exposure, DDRT40: 1.9 fold
  Fold-change in mRNA levels following cadmium exposure, DDRT41: 2.2 fold
  Fold-change in mRNA levels following cadmium exposure, DDRT48: 2.1 fold
  Fold-change in mRNA levels following cadmium exposure, DDRT50: 2.2 fold
  Fold-change in mRNA levels following cadmium exposure, VL9: −1.7 fold
  Fold-change in mRNA levels following cadmium exposure, VL11: 3.2 fold
  Fold-change in mRNA levels following cadmium exposure, VL19: 3.6 fold
  Fold-change in mRNA levels following cadmium exposure, VL20: 2.8 fold
  Fold-change in mRNA levels following cadmium exposure, VL21: 2.2 fold
[2]
  Fold-change in mRNA levels following cadmium exposure, DDRT25: 4.4 fold
  Fold-change in mRNA levels following cadmium exposure, DDRT26: 4.7 fold
  Fold-change in mRNA levels following cadmium exposure, DDRT28: 1.8 fold
  Fold-change in mRNA levels following cadmium exposure, DDRT29: 4.4 fold
  Fold-change in mRNA levels following cadmium exposure, DDRT30: 3.1 fold
  Fold-change in mRNA levels following cadmium exposure, DDRT32: 2.4 fold
  Fold-change in mRNA levels following cadmium exposure, DDRT33D: 3.5 fold
  Fold-change in mRNA levels following cadmium exposure, DDRT33U: 3.5 fold
  Fold-change in mRNA levels following cadmium exposure, DDRT34: 3.0 fold
  Fold-change in mRNA levels following cadmium exposure, DDRT35: 1.9 fold
  Fold-change in mRNA levels following cadmium exposure, DDRT40: 2.3 fold
  Fold-change in mRNA levels following cadmium exposure, DDRT41: 2.1 fold
  Fold-change in mRNA levels following cadmium exposure, DDRT48: 2.6 fold
  Fold-change in mRNA levels following cadmium exposure, DDRT50: 2.2 fold
  Fold-change in mRNA levels following cadmium exposure, VL9: −2.3 fold
  Fold-change in mRNA levels following cadmium exposure, VL11: 6.1 fold
  Fold-change in mRNA levels following cadmium exposure, VL19: 5.0 fold
  Fold-change in mRNA levels following cadmium exposure, VL20: 5.0 fold
  Fold-change in mRNA levels following cadmium exposure, VL21: 2.5 fold
Clone DDRT38, 24 hours, 100 μM CdCl2, relative to non-exposed, normalized to myosin light chain mRNA
  Fold-change in mRNA levels following cadmium exposure, DDRT38: 1.8 fold
Clone VL3, 24 hours, 100 μM CdCl2, relative to non-exposed, normalized to myosin light chain mRNA
  Fold-change in mRNA levels following cadmium exposure, VL3: 2.4 fold
Clone VL12 (mtl-1), 24 hours, 100 μM CdCl2, relative to non-exposed, normalized to myosin light chain mRNA
  Fold-change in mRNA levels following cadmium exposure, VL12: 5.2 fold
Following cadmium exposure
  decrease in level of expression, a single clone: ~2 fold
  increase in steady-state level of expression, forty-eight of the clones: 2-6 fold
In response to cadmium, time not stated
  decrease in level of expression for VL9: ~2 fold
